pIC50: −log10 of the molar value.
Experiments:
Format in all cases: biochemical
JAK3 = molecular target: T1, JAK3 (Homo sapiens, UniProt P52333); assay: JAK 3 enzymatic inhibitory activity IC50 assay (Caliper conversion rate); conditions: Km ATP, 28° C., 1 hour; read-out: JAK 3 enzymatic inhibitory activity IC50
T1 sequence (P52333 1-1124): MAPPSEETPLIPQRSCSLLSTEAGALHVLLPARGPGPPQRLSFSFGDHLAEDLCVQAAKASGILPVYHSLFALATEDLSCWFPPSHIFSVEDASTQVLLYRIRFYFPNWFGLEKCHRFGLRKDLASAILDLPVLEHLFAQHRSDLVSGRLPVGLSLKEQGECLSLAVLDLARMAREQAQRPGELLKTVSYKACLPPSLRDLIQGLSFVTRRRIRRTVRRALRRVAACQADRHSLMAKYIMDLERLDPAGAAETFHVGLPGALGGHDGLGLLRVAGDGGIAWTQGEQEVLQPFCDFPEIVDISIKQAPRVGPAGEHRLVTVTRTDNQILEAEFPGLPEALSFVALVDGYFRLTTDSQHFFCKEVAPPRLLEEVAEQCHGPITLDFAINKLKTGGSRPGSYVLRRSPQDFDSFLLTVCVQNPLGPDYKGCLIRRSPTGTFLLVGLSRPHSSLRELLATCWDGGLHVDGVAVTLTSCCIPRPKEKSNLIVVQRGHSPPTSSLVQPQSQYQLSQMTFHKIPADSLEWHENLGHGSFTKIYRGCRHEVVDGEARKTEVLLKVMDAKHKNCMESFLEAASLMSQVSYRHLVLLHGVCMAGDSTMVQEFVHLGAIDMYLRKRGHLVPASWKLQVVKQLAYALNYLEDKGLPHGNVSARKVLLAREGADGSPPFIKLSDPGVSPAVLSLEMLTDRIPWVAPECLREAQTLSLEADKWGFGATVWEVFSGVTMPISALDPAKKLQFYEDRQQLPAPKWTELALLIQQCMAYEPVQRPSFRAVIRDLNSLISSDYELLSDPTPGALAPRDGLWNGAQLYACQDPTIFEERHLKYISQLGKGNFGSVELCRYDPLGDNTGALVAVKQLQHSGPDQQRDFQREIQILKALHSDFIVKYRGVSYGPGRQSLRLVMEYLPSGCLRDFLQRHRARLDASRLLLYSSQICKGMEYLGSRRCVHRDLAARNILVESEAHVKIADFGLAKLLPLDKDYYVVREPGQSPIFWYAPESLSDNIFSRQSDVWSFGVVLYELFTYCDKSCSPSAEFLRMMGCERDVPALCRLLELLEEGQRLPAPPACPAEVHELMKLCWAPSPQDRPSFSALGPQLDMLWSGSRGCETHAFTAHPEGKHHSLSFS
Experimental: (§1) Biological effect: intracytoplasmic JAK 1,2,3 enzymatic inhibitory activity IC50 assay
(§2) JAK1 buffer solution: 25 mM HEPES, pH 7.5, 0.01% Brij-35, 0.01 M Triton. JAK2,3 buffer solution: 50 mM HEPES, pH 7.5, 0.0015% Brij-35.
(§3) 2. Compound was formulated in 100% DMSO in a concentration gradient, deposited to a 384-well plate with a final concentration of 2% of DMSO.
3. JAK2,3 enzymes were diluted to having an optimum concentration with the following buffer: 50 mM HEPES, pH 7.5, 0.0015% Brij-35, 2 mM DTT. JAK1 enzyme was diluted to having an optimum concentration with the following buffer: 25 mM HEPES, pH 7.5, 0.01% Brij-35, 2 mM DTT, 0.01M Triton. Then they were transferred to a 384-well plate and incubated with the compound for a certain time. […]
(§4) 5. Read the conversion rate by Caliper Reader, and the inhibition rate are calculated according to the average of two tests.

JAK2 = JAK2 (Homo sapiens, UniProt O60674); assay: JAK 2 enzymatic inhibitory activity IC50 assay (Caliper conversion rate); conditions: Km ATP, 28° C., 1 hour
Sequence of JAK2 (O60674 whole entry, species assumed): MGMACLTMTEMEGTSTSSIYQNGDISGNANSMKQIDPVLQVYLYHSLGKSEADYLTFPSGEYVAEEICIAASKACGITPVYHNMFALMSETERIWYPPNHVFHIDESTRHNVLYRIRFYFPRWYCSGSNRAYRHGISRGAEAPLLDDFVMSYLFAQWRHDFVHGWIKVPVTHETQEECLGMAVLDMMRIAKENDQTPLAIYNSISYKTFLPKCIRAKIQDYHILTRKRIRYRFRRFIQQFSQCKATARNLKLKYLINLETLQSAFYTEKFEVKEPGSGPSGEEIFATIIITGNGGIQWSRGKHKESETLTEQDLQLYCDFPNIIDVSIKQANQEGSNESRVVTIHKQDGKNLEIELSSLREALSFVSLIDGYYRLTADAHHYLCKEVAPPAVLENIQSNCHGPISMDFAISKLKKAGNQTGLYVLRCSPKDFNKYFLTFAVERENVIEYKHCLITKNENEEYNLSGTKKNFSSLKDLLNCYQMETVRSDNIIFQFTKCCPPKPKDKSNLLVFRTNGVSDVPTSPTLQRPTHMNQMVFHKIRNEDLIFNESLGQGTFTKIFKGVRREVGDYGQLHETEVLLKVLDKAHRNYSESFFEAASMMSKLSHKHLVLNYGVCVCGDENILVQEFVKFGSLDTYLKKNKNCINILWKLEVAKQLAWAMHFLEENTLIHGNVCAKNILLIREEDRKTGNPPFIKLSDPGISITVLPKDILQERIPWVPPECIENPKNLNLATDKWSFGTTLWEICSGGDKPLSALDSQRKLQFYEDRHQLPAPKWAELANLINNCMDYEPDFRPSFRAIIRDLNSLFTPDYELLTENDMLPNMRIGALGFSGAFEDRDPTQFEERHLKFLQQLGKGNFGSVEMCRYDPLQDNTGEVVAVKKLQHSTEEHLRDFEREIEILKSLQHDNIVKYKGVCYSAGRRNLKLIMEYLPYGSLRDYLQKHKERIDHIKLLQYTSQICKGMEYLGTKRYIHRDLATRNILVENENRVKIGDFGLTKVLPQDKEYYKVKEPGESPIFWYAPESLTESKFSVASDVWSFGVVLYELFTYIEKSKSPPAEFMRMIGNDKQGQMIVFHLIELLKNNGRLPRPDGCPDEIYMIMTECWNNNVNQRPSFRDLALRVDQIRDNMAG
Experimental: as §1, §2, §3
(§5) 3. JAK2,3 enzymes were diluted to having an optimum concentration with the following buffer: 50 mM HEPES, pH 7.5, 0.0015% Brij-35, 2 mM DTT. JAK1 enzyme was diluted to having an optimum concentration with the following buffer: 25 mM HEPES, pH 7.5, 0.01% Brij-35, 2 mM DTT, 0.01M Triton. Then they were transferred to a 384-well plate and incubated with the compound for a certain time.
(§6) 4. JAK2,3 substrate was diluted to having an optimum concentration with the following buffer: 50 mM HEPES, pH 7.5, 0.0015% Brij-35, 10 mM MgCl2, Km adenosine triphosphate. JAK1 substrate was diluted to having an optimum concentration with the following buffer: 25 mM HEPES, pH 7.5, 0.01% Brij-35, 10 mM MgCl2, 0.01 M Triton. Km adenosine triphosphate was added into 384-well plates to initiate reactions, and the reaction were carried out at 28° C. for 1 hour.
as §4

JAK1 = JAK1 (Homo sapiens, UniProt P23458); assay: JAK 1 enzymatic inhibitory activity IC50 assay (Caliper conversion rate); conditions: Km ATP, 28° C., 1 hour
Sequence of JAK1 (P23458 whole entry, species assumed): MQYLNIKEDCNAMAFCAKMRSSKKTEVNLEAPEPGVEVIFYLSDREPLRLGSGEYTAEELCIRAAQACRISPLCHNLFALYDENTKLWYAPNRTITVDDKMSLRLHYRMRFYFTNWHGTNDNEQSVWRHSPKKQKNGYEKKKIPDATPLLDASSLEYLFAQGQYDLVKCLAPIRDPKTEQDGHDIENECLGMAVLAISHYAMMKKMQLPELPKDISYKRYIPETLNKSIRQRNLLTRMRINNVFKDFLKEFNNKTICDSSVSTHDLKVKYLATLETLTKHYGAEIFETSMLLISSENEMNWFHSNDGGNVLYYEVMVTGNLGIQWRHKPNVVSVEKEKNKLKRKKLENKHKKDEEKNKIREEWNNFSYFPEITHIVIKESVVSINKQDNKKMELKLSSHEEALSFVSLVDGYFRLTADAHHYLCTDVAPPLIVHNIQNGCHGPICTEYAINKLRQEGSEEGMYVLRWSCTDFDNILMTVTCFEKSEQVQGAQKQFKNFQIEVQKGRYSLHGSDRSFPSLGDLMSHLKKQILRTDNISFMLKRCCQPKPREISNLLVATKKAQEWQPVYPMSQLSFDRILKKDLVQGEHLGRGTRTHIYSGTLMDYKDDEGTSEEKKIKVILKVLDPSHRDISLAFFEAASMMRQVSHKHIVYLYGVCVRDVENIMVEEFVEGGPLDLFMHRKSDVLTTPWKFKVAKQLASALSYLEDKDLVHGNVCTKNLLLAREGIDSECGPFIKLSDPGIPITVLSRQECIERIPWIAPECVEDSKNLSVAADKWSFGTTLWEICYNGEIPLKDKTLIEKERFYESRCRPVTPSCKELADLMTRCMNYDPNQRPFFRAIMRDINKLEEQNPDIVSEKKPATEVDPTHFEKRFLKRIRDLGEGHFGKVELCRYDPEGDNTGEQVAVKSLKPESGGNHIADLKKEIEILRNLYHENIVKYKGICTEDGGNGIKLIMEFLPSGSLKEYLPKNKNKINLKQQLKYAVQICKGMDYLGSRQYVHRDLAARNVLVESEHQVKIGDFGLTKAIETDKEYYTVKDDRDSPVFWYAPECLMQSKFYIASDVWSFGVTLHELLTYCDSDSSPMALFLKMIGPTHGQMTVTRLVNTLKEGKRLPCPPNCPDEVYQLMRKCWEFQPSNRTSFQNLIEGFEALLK
Experimental: as §1, §2, §3, §5, §6, §4

| Compound | pIC50 (JAK3) | pIC50 (JAK2) | pIC50 (JAK1) |
| --- | --- | --- | --- |
| CC(CC#N)n1cc(-c2nc(NCc3ccccc3)nc3ccsc23)cn1 (stereo not shown) [Compound T-01, 3-(4-(2-(Benzylamino)thieno[3,2-d]pyrimidin-4-yl)-1H-pyrazol-1-yl)butanenitrile] | < 6.00 | < 6.00 |  |
| CC(CC#N)n1cc(-c2nc(Nc3ccccc3)nc3ccsc23)cn1 (stereo not shown) [Compound T-02, 3-(4-(2-(Phenylamino)thieno[3,2-d]pyrimidin-4-yl)-1H-pyrazol-1-yl)butanenitrile] | < 6.00 | 6.30 to 7.30 |  |
| N#CCC(C1CCCC1)n1cc(-c2nc(Nc3ccccc3)nc3ccsc23)cn1 (stereo not shown) [Compound T-03, 3-Cyclopentyl-3-(4-(2-(phenylamino)thieno[3,2-d]pyrimidin-4-yl)-1H-pyrazol-1-yl)propanenitrile] | < 6.00 | > 7.30 |  |
| N#CCC(C1CCCC1)n1cc(-c2nc(Nc3cncnc3)nc3ccsc23)cn1 (stereo not shown) [Compound T-04, 3-Cyclopentyl-3-(4-(2-(pyrimidin-5-ylamino)thieno[3,2-d]pyrimidin-4-yl)-1H-pyrazol-1-yl)propanenitrile] | < 6.00 | > 7.30 |  |
| CCS(=O)(=O)N1CC(CC#N)(n2cc(-c3nc(Nc4ccccc4)nc4ccsc34)cn2)C1 [Compound T-05, 2-(1-(Ethylsulfonyl)-3-(4-(2-(phenylamino)thieno[3,2-d]pyrimidin-4-yl)-1H-pyrazol-1-yl)azetidin-3-yl)acetonitrile] | 6.30 to 7.30 | > 7.30 | 6.30 to 7.30 |
| CCS(=O)(=O)N1CC(CC#N)(n2cc(-c3nc(NC4CCOCC4)nc4ccsc34)cn2)C1 [Compound T-06, 2-(1-(Ethylsulfonyl)-3-(4-(2-((tetrahydro-2H-pyran-4-yl)amino)thieno[3,2-d]pyrimidin-4-yl)-1H-pyrazol-1-yl)azetidin-3-yl)acetonitrile] | < 6.00 | < 6.00 |  |
| CCS(=O)(=O)N1CC(CC#N)(n2cc(-c3nc(Nc4ccc(N5CCOCC5)cc4)nc4ccsc34)cn2)C1 [Compound T-07, 2-(1-(Ethylsulfonyl)-3-(4-(2-((4-morpholinophenyl)amino)thieno[3,2-d]pyrimidin-4-yl)-1H-pyrazol-1-yl)azetidin-3-yl)acetonitrile] | 6.30 to 7.30 | > 7.30 | > 7.30 |
| CCS(=O)(=O)N1CC(CC#N)(n2cc(-c3nc(Nc4ccc(OCCN5CCOCC5)cc4)nc4ccsc34)cn2)C1 [Compound T-08, 2-(1-(Ethylsulfonyl)-3-(4-(2-((4-(2-morpholinoethoxy)phenyl)amino)thieno[3,2-d]pyrimidin-4-yl)-1H-pyrazol-1-yl)azetidin-3-yl)acetonitrile] | 6.30 to 7.30 | > 7.30 |  |
| CCS(=O)(=O)N1CC(CC#N)(n2cc(-c3nc(Nc4ccc(OCCN5CCCC5)cc4)nc4ccsc34)cn2)C1 [Compound T-09, 2-(1-(Ethylsulfonyl)-3-(4-(2-((4-(2-(pyrrolidin-1-yl)ethoxy)phenyl)amino)thieno[3,2-d]pyrimidin-4-yl)-1H-pyrazol-1-yl)azetidin-3-yl)acetonitrile] | 6.30 to 7.30 | > 7.30 | 6.30 to 7.30 |
| CCS(=O)(=O)N1CC(CC#N)(n2cc(-c3nc(Nc4ccc(-n5cncn5)cc4)nc4ccsc34)cn2)C1 [Compound T-10, 2-(3-(4-(2-((4-(1H-1,2,4-Triazol-1-yl)phenyl)amino)thieno[3,2-d]pyrimidin-4-yl)-1H-pyrazol-1-yl)-1-(ethylsulfonyl)azetidin-3-yl)acetonitrile] | 6.30 to 7.30 | > 7.30 | > 7.30 |
| CCS(=O)(=O)N1CC(CC#N)(n2cc(-c3nc(Nc4ccc(-n5cccn5)cc4)nc4ccsc34)cn2)C1 [Compound T-11, 2-(3-(4-(2-((4-(1H-Pyrazol-1-yl)phenyl)amino)thieno[3,2-d]pyrimidin-4-yl)-1H-pyrazol-1-yl)-1-(ethylsulfonyl)azetidin-3-yl)acetonitrile] | < 6.00 | > 7.30 | 6.30 to 7.30 |
| CCS(=O)(=O)N1CC(CC#N)(n2cc(-c3nc(Nc4ccc(S(C)(=O)=O)cc4)nc4ccsc34)cn2)C1 [Compound T-12, 2-(1-(Ethylsulfonyl)-3-(4-(2-((4-(methylsulfonyl)phenyl)amino)thieno[3,2-d]pyrimidin-4-yl)-1H-pyrazol-1-yl)azetidin-3-yl)acetonitrile] | 6.30 to 7.30 | > 7.30 | > 7.30 |
| CCS(=O)(=O)N1CC(CC#N)(n2cc(-c3nc(Nc4cccc(N5CCOCC5)c4)nc4ccsc34)cn2)C1 [Compound T-13, 2-(1-(Ethylsulfonyl)-3-(4-(2-((3-morpholinophenyl)amino)thieno[3,2-d]pyrimidin-4-yl)-1H-pyrazol-1-yl)azetidin-3-yl)acetonitrile] | 6.00 to 6.30 | 6.30 to 7.30 | 6.00 to 6.30 |
| CCS(=O)(=O)N1CC(CC#N)(n2cc(-c3nc(Nc4cncnc4)nc4ccsc34)cn2)C1 [Compound T-14, 2-(1-(Ethylsulfonyl)-3-(4-(2-(pyrimidin-5-ylamino)thieno[3,2-d]pyrimidin-4-yl)-1H-pyrazol-1-yl)azetidin-3-yl)acetonitrile] | < 6.00 | > 7.30 | 6.00 to 6.30 |
| CCS(=O)(=O)N1CC(CC#N)(n2cc(-c3nc(Nc4cnn(C)c4)nc4ccsc34)cn2)C1 [Compound T-15, 2-(1-(Ethylsulfonyl)-3-(4-(2-((1-methyl-1H-pyrazol-4-yl)amino)thieno[3,2-d]pyrimidin-4-yl)-1H-pyrazol-1-yl)azetidin-3-yl)acetonitrile] | 6.30 to 7.30 | > 7.30 | > 7.30 |
| N#CCNC(=O)c1ccc(-c2nc(Nc3ccccc3)nc3ccsc23)cc1 [Compound T-16, N-(Cyanomethyl)-4-(2-(phenylamino)thieno[3,2-d]pyrimidin-4-yl)benzamide] | < 6.00 | < 6.00 | < 6.00 |
| CC(C)(C)NS(=O)(=O)c1ccc(-c2nc(Nc3ccc(N4CCOCC4)cc3)nc3ccsc23)cc1 [Compound T-17, N-(Tert-butyl)-4-(2-((4-morpholinophenyl)amino)thieno[3,2-d]pyrimidin-4-yl)benzenesulfonamide] | < 6.00 | < 6.00 | < 6.00 |
| CCS(=O)(=O)N1CC(CC#N)(n2cc(-c3nc(Nc4ccc(F)cc4)nc4ccsc34)cn2)C1 [Compound T-24, 2-(1-(Ethylsulfonyl)-3-(4-(2-((4-fluorophenyl)amino)thieno[3,2-d]pyrimidin-4-yl)-1H-pyrazol-1-yl)azetidin-3-yl)acetonitrile] | < 6.00 | > 7.30 |  |
| CCS(=O)(=O)N1CC(CC#N)(n2cc(-c3nc(NC4CCCCC4)nc4ccsc34)cn2)C1 [Compound T-27, 2-(3-(4-(2-(Cyclohexylamino)thieno[3,2-d]pyrimidin-4-yl)-1H-pyrazol-1-yl)-1-(ethylsulfonyl)azetidin-3-yl)acetonitrile] | < 6.00 | < 6.00 |  |

From US9745320B2, “Five-and-six-membered heterocyclic compound, and preparation method, pharmaceutical composition and use thereof” (SHANGHAI CHEMEXPLORER CO., LTD., priority 2013, dated 2017)
